Laboratory results from PubChem BioAssay AID812 (SRMLSC, 2007).
pEC50: −log10 of the molar value. The source made the active and inactive calls. No rule for the calls is given here.

The compounds below were run on Saccharomyces cerevisiae lifespan extension, no nicotinamide (assay: yeast lifespan extension without nicotinamide, confirmation, yeast lifespan extension project, S. cerevisiae (AID 812);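 also: growth read as optical density after 42 hours of incubation at 30C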).

SMILES | EC50 | pEC50
O=C(N/N=C/c1cccc(F)c1)c1c(O)c2ccccc2[nH]c1=O | > 40 µM (inactive) | 
CCCCOC(=O)CSc1nc2c(c(=O)[nH]c(=O)n2C)n1C/C=C(\C)Cl | > 40 µM (inactive) | 
Cn1c(=O)c(=O)n(C)c2cc(S(=O)(=O)N3CCN(Cc4ccccc4)CC3)ccc21 | > 40 µM (inactive) | 
CC(C)CN=C(NS(=O)(=O)c1ccccc1)C(Cl)(Cl)Cl | > 40 µM (inactive) | 
COc1ccccc1CN(Cc1nc2ccccc2c(=O)[nH]1)C(=O)Nc1cccc(C)c1 | > 40 µM (inactive) | 
COc1cc(/C=C/C(=O)C2C(=O)C=C(C)OC2=O)cc(OC)c1O (stereo not given) | > 40 µM (inactive) | 
CCc1nc(SCC(=O)c2ccc3c(c2)OCCO3)c2ccccc2n1 |  | 4.72
O=C(c1ccccc1)C(CN1CCCC1)c1ccccc1 (stereo not given) | > 40 µM (inactive) | 
Cc1ccc(C(=O)C2C(=O)c3ccccc3C2=O)cc1 | > 40 µM (inactive) | 
O=C(CCl)c1ccc(Cc2ncc(C(F)(F)F)cc2Cl)s1 | > 40 µM (inactive) | 
CCOC(=O)Cc1csc(NC(=O)c2c(O)c3ccccc3n(CC(C)C)c2=O)n1 | > 40 µM (inactive) | 
O=C1NCC2=C1C(c1ccc(Br)cc1)Nc1ccccc1N2 (stereo not given) | > 40 µM (inactive) | 
CCn1cc(C(=O)O)c(=O)c2ccc(C)nc21 | > 40 µM (inactive) | 
CCc1oc2ccccc2c1C(=O)CCN1CCCCC1 | > 40 µM (inactive) | 
CCN1C(=O)C(=Cc2ccc(C)s2)C(=O)N(CC)C1=S | > 40 µM (inactive) | 
CCn1c(=O)c2c(O)cc(=O)oc2c2ccccc21 | > 40 µM (inactive) | 
CC1CCCCN1C(=S)Nc1ccc2nc3n(c(=O)c2c1)CCCCC3 (stereo not given) | > 40 µM (inactive) | 
CCOc1ccc(C2=NNC(c3cccs3)=Nc3ccc(OCC)cc32)cc1 | > 40 µM (inactive) | 
Cc1ccc(OCC(=O)c2c(O)c3ccccc3oc2=O)cc1C | > 40 µM (inactive) | 
CCCCC(=Nc1ccc(N)cc1)C1=C(O)C(C(=O)OC)C(C)(C)CC1=O (stereo not given) | > 40 µM (inactive) | 
CC(C)OCCCNS(=O)(=O)c1ccc2ccccc2c1 | > 40 µM (inactive) | 
CC(C)c1nnc(NC(=O)c2c(O)c3cccc4c3n(c2=O)CCC4)s1 | > 40 µM (inactive) | 
CCCCn1c(/N=C/c2ccccc2NS(=O)(=O)c2ccc(C)cc2)nc2ccccc21 | > 40 µM (inactive) | 
CN(C)/C=C(/C(=O)c1ccc(Cl)cc1Cl)S(=O)(=O)c1ccc(Cl)cc1 | > 40 µM (inactive) | 
CCOC(=O)c1cnc(-c2ccccc2)nc1Oc1ccc(Cl)cc1 | > 40 µM (inactive) | 

SMILES | EC50 | pEC50
Fc1cccc2sc(Nc3nnc(-c4ccccc4)o3)nc12 | > 40 µM (inactive) | 
COc1ccccc1N(CN1CCCC1=O)C(=O)c1c(F)cccc1F | > 40 µM (inactive) | 
O=C1CC(c2ccccc2)CC(O)=C1C=NCCN1CCNCC1 (stereo not given) | > 40 µM (inactive) | 
COc1ccc(/C=C/C(=O)C2C(=O)C=C(C)OC2=O)cc1O (stereo not given) | > 40 µM (inactive) | 
COC(=O)CC1=NN(c2ccccc2)C(=O)/C1=C\c1ccc(OC)cc1 | > 40 µM (inactive) | 
CS(=O)(=O)Oc1ccc(Br)cc1/C=C1/N=C(c2ccco2)OC1=O | > 40 µM (inactive) | 
CC(=NCCc1c(C)[nH]c2ccc(C)cc12)C1=C(O)CC(c2ccccc2)CC1=O (stereo not given) | > 40 µM (inactive) | 
CCCC(=O)Nc1ccc(C(=O)NNC(=S)NC(=O)c2cccs2)cc1 | > 40 µM (inactive) | 
O=C1CC(c2ccc(F)cc2)CC(O)=C1C=NCCN1CCN(C(=O)Nc2ccccc2)CC1 (stereo not given) | > 40 µM (inactive) | 
O=C(NC(=S)Nc1nc2c(s1)CSc1ccccc1-2)c1ccccc1 | > 40 µM (inactive) | 
C=C(CC)C(=O)c1ccc(OCC(=O)O)c(Cl)c1Cl | > 40 µM (inactive) | 
CCCCSc1nc(O)c(C2OC(=O)c3c2ccc(OC)c3OC)c(=O)n1C (stereo not given) | > 40 µM (inactive) | 
Cc1cc(C)nc(SCc2cc(=O)c(OC(=O)c3ccc(Br)o3)co2)n1 | > 40 µM (inactive) | 
CCOC(=O)/C(=C\c1cn(C)c2ccccc12)[N+](=O)[O-] | > 40 µM (inactive) | 
O=c1c2ccccc2nc(-c2cccc(Cl)c2)n1O | > 40 µM (inactive) | 
COC(=O)c1cc(=O)n(-c2ccccc2)c(=Nc2ccccc2)s1 | > 40 µM (inactive) | 
O=C(/C=C/c1ccccc1)C1C(=O)c2ccccc2C1=O | > 40 µM (inactive) | 
O=S1(=O)C=C(Sc2nnc(-c3ccccc3)o2)c2ccccc21 | > 40 µM (inactive) | 
COCCN(CCOC)S(=O)(=O)c1ccc(C(=O)Nc2sc3c(c2C(N)=O)CCCCC3)cc1 | > 40 µM (inactive) | 
COC(=O)C(=O)/C=C(\O)c1ccc(C)cc1 | > 40 µM (inactive) | 
O=[N+]([O-])c1cc2oc3c(c2c(C=NCc2ccccc2)c1O)CCCC3 | > 40 µM (inactive) | 
COc1ccc(C(=O)C(CN2CCOCC2)c2ccccc2)cc1F (stereo not given) | > 40 µM (inactive) | 
O=C1/C(=N/n2cnnc2)c2ccccc2N1Cc1ccccc1 | > 40 µM (inactive) | 
COCCCNC(CC(=O)Nc1ccc(OC)cc1OC)C(=O)O (stereo not given) | > 40 µM (inactive) | 
c1cncc(-c2nn[nH]n2)c1 | > 40 µM (inactive) | 

SMILES | EC50 | pEC50
COc1ccc(CC(=O)Nc2ccc3c(c2)CCC3)cc1S(=O)(=O)N1CCOCC1 | > 40 µM (inactive) | 
COc1ccc(O)c(C(=O)c2cc(C#N)c(=O)n(CC3CCCO3)c2)c1 (stereo not given) | > 40 µM (inactive) | 
O=c1c(Cl)c(NCCCO)cnn1-c1nc2ccccc2[nH]1 | > 40 µM (inactive) | 
CC(C)Cn1c(=O)c(C(=O)Nc2cnccn2)c(O)c2ccccc21 | > 40 µM (inactive) | 
CS(=O)(=O)c1nc(-c2ccccc2)cc(C(F)(F)F)n1 | > 40 µM (inactive) | 
CC1=CS(=O)(=O)CC1Sc1nc2ccccc2[nH]1 (stereo not given) | > 40 µM (inactive) | 
Cc1ccc(Oc2nc3ccccc3n3c(C)nnc23)c(C)c1 | > 40 µM (inactive) | 
COc1cccc(/C=C2\C(=O)N(c3cccc(C)c3)C(=O)c3ccccc32)c1 | > 40 µM (inactive) | 
Cc1ccc2nc(N3C(=O)C(O)=C(C(=O)c4ccco4)C3c3cccs3)sc2c1 (stereo not given) | > 40 µM (inactive) | 
Cc1ccc(S(=O)(=O)C(C#N)c2nc3ccccc3nc2N2CCCC2)cc1 (stereo not given) | > 40 µM (inactive) | 
O=C(CCl)N1c2ccccc2OCC1c1ccccc1 (stereo not given) | > 40 µM (inactive) | 
O=C1OC2(CCCCC2)OC(=O)C1=CNc1nc2ccccc2s1 | > 40 µM (inactive) | 
CC(=O)Oc1ccc(N(C(C)=O)S(=O)(=O)c2ccc(C)c([N+](=O)[O-])c2)cc1 | > 40 µM (inactive) | 
COc1cc(C(C[N+](=O)[O-])c2c(-c3ccccc3)cc3ccccn23)cc(OC)c1OC (stereo not given) | > 40 µM (inactive) | 
Cc1cc2c(c(=O)n1CCc1ccccc1)C(c1ccco1)C(C#N)=C(N)O2 (stereo not given) | > 40 µM (inactive) | 
O=Cc1cccn1-c1sc2c(c1C(=O)O)CCCC2 | > 40 µM (inactive) | 
CCOC(=O)/C(=C/c1ccc(OC(=O)c2ccccc2)cc1)C(C)=O | > 40 µM (inactive) | 
CN1C(=O)C(Cl)(Cl)C(=O)c2ccccc21 | > 40 µM (inactive) | 
CCCCOC(=O)n1c(=O)oc2cc(S(=O)(=O)N3CCCCC3)ccc21 | > 40 µM (inactive) | 
CSc1ccc(S(=O)(=O)NCc2ccc(Cl)cc2Cl)cc1 | > 40 µM (inactive) | 
CC(c1ccccc1)N1CCn2c(nc3cc(NC(=O)c4cccs4)ccc32)C1 (stereo not given) | > 40 µM (inactive) | 
COc1ccc(C(C)NC(=O)c2ccccc2)cc1 (stereo not given) | > 40 µM (inactive) | 
CCOc1ccc(C(=O)C(CN2CCOCC2)c2ccccc2)cc1 (stereo not given) | > 40 µM (inactive) | 
CC(C)=C1C(=O)NN(c2ccc(C)c(Cl)c2)C1=O | > 40 µM (inactive) | 
N#Cc1c(-c2ccccc2)c(-c2ccccc2)nn(CC(=O)NNC(=O)Nc2ccccc2)c1=O | > 40 µM (inactive) | 

SMILES | EC50 | pEC50
CCOC(=O)CCS(=O)(=O)c1nc(-c2ccccc2)cc(C(F)(F)F)n1 | > 40 µM (inactive) | 
CCCCCCN1CC(C(=O)OCC)C(=O)C1=O (stereo not given) | > 40 µM (inactive) | 
Cc1ccc(NC(=O)CN2CCN(CCN=CC3=C(O)CC(c4ccccc4)CC3=O)CC2)cc1 (stereo not given) | > 40 µM (inactive) | 
Cc1cc(C=C2C(=O)N(C)C(=S)N(C)C2=O)c(C)n1-c1cccnc1 | > 40 µM (inactive) | 
CCCCC(=O)Nc1ccc(C(=O)NNC(=S)NC(=O)c2cccs2)cc1 | > 40 µM (inactive) | 
Cc1oc2c(c(=O)c1C)C(=O)CC(c1ccccc1)C2 (stereo not given) | > 40 µM (inactive) | 
CCOC(=O)COc1ccccc1/C=C\[N+](=O)[O-] | > 40 µM (inactive) | 
O=[N+]([O-])c1c(C(Cl)Cl)nn(-c2ccccc2)c1N1CCCC1 | > 40 µM (inactive) | 
CC(C)C(c1nnnn1Cc1ccccc1)N1CCN(Cc2ccc3c(c2)OCO3)CC1 (stereo not given) | > 40 µM (inactive) | 
CCOC(=O)c1ccccc1N1C(=O)CSC1=S | > 40 µM (inactive) | 
COc1ccc(/C=C(/C(=O)c2ccc(Cl)cc2Cl)n2cncn2)cc1 | > 40 µM (inactive) | 
N#Cc1ccc(-c2ccc(OCC(=O)NCCc3ccccc3)cc2)cc1 | > 40 µM (inactive) | 
COCCn1c(SCC(=O)Nc2ccc(C)cc2)nc2c(oc3ccccc32)c1=O | > 40 µM (inactive) | 
O=S(=O)(Nc1nc2ccccc2nc1Cl)c1ccc2ccccc2c1 | > 40 µM (inactive) | 
O=C(/C(=C/O)N=Nc1ccc(Cl)cc1)c1ccncc1 | > 40 µM (inactive) | 
O=C1CC(c2ccccc2)CC(O)=C1C=NCCN1CCN(C(=O)Cc2ccccc2)CC1 (stereo not given) | > 40 µM (inactive) | 
Cc1ccsc1C(=O)Nc1nnc(-c2ccco2)o1 | > 40 µM (inactive) | 
CN1C(=O)NC(c2ccc(O)cc2)C(C(=O)c2cccs2)C1(O)C(F)(F)F (stereo not given) | > 40 µM (inactive) | 
O=c1cc(-c2c(F)c(F)c(F)c(F)c2F)oc2c(F)c(F)c(F)c(F)c12 | > 40 µM (inactive) | 
Cc1ccc(C(=O)NNC(=S)NC(=O)c2ccc(Cl)cc2)cc1 | > 40 µM (inactive) | 
O=C(/C=C(\O)c1ccc(Cl)cc1)C(=O)NNC(=O)C(O)(c1ccccc1)c1ccccc1 | > 40 µM (inactive) | 
CC1=C(C#N)C2C(/C1=N/O)C2(C)C (stereo not given) | > 40 µM (inactive) | 
O=C(NCCc1ccccn1)C(F)(F)C(F)(F)C(F)(F)C(F)(F)C(F)(F)C(F)(F)C(F)(F)C(F)F | > 40 µM (inactive) | 
CCOc1ccc(NCc2nc3ccccc3n2CCOc2ccccc2)cc1 | > 40 µM (inactive) | 
Cc1ccc2nc(-c3ccc(NC(=O)CSc4ccccc4)cc3)[nH]c2c1 | > 40 µM (inactive) | 
